Results reported in patent publication US20150140123A1, “Protein expression analyses for identifying genotoxic compounds” (Merck Patent GmbH, priority 2012, published 2015).
Read-outs that look alike come from different tables or passages of the source.

Test system: HepG2 cells
Assay: High content imaging cytotoxicity parameters: selected cell count per valid field (SCC) and CMFDA cytoplasm average intensity
Procedure: HepG2 cells (Order No. HB-8065, Lot. 58483209, ATCC, Manassas, USA) were cultured in DMEM/F12 with L-Glutamine and 15 mM Hepes supplemented with 10% (v/v) FBS, 1% (v/v) penicillin (10 kU/ml)/streptomycin (10 mg/ml) solution, 0.1% (v/v) gentamicin (50 mg/ml), and 1 mM sodium pyruvate at 37° C. and 5% CO2 in culture flasks. Depending on the experiment, an appropriate number of cells were seeded onto plates after detaching of the cells using trypsin and cells were cultured at 37° C. and 5% CO2 for 24 h prior to treatment. All experiments were performed three times with cells of passages 4-20.
Cells were seeded onto black Poly-D-Lysin coated 96-well-plates (BD Biocoat, Franklin Lakes, USA) (0.02×10^6 cells/well) and left 24 h for adherence and then treated with test compounds at a maximum concentration of 1 mM which is recommended by the ICH S2(R1) guideline (EMA, 2011). For each compound, nine concentrations were tested with 2-fold serial dilutions. DMSO 1% (v/v) served as vehicle control for the experiments. The treatment procedure was different for direct-genotoxic and pro-genotoxic compounds. The treatment for direct genotoxic compounds was ongoing and was repeated daily over 48 h. Pro-genotoxic compounds were incubated for 6 h together with metabolic activation system (to limit the cytotoxic effect of the S9-mixture). After this period, cells were washed with cell media followed by 18-repeated daily over 48 h. The metabolic activation system used consisted of the following components and concentrations: 8 mM MgCl2, 32.8 mM KCl, 12 mM NADPH, 124 mM phosphate buffer and 2500 pmol/ml cytochrome P450 (CYP) content in the pre-mixture corresponding to 2.4 mM MgCl2, 9.8 mM KCl, 3.6 mM NADPH, 37.2 mM phosphate buffer, and 750 pmol/ml CYP as final concentrations after dilution 1:3.33 with cell culture media.
After treatment, cells were rinsed with PBS (Gibco Invitrogen, Karlsruhe, Germany), and then stained with 10 μM CellTracker Green 5-Chloromethylfluorescein Diacetate (CMFDA) (Invitrogen, Karlsruhe, Germany) in cell culture media for 30 min. CMFDA is per se non-fluorescent and is hydrolyzed by esterase in viable cells to a fluorescent-dye. The reaction with thiol groups leads to a cell-impermeable fluorescent-dye-adduct. The esterase activity can be used as an indicator for viability of cells (Papadopoulos et al., 1994, J Immunol Methods 177, 101-11). Afterwards, cells were washed with PBS and fixed with 3.7% Formaldehyde (Sigma-Aldrich, Taufkirchen, Germany) in PBS for 20 min. After that, cells were washed with PBS and blocked and permeabilized with 2% donkey serum (Millipore, Schwalbach, Germany) and 0.25% Triton X-100 (Sigma-Aldrich, Taufkirchen, Germany) in PBS for 30 min. Primary antibodies were diluted in Blocking/Permeabilization solution to final concentrations of 4 μg/ml anti-p-Chk1 (Ser345) goat polyclonal antibody IgG (santa cruz, Santa Cruz, USA), 4 μg/ml anti-p-ATM (Ser1981) mouse monoclonal antibody IgG1K (Millipore, Schwalbach, Germany) and added to the cells. After incubation for 16-18 h, cells were washed with 0.05% Tween 20 (Calbiochem, Darmstadt, Germany) in PBS, and the secondary antibody/16 μM Hoechst staining solution Blocking/Permeabilization solution was added. Secondary antibodies were diluted 1:400 (Alexa Fluor 555 donkey anti-goat, Alexa Fluor 647 donkey anti-mouse, Invitrogen, Karlsruhe, Germany). After an incubation of 1 h, followed by two additional washing steps with 0.05% Tween 20, cells were washed with PBS and finally PBS was added and cells were measured.
Image acquisition was performed on the ArrayScan VTI HCS Reader (Cellomics, Pittsburgh, USA) using a 20× objective. To detect enough cells, 50 images starting at the middle of each well were gathered.
• Channel 1: selected cell count per valid field • Channel 2: CMFDA cytoplasm average intensity • Channel 3: p-Chk1 (Ser345) nucleus average intensity • Channel 4: p-ATM (Ser1981) nucleus average intensity

## Oc1cccc(O)c1 [1,3-Dihydroxybenzene (resorcinol), 1,3-Dihydroxybenzene]
human, 48 h
  CMFDA +S9 highest conc. <50% cytotox. over control: 500 µM
  CMFDA −S9 highest conc. <50% cytotox. over control: 1000 µM
  SCC +S9 highest conc. <50% cytotox. over control: 1000 µM
  SCC −S9 highest conc. <50% cytotox. over control: 1000 µM

## CC(=O)Nc1ccc2c(c1)Cc1ccccc1-2 [2-Acetylaminofluorene]
HepG2 cells, 48 h, CMFDA cytoplasm average intensity, with rat liver S9 (+S9)
  CMFDA +S9 highest conc. <50% cytotox. over control: 1000 µM
HepG2 cells, 48 h, CMFDA cytoplasm average intensity, without metabolic activation (−S9)
  CMFDA −S9 highest conc. <50% cytotox. over control: 1000 µM
HepG2 cells, 48 h, selected cell count per valid field, with rat liver S9 (+S9)
  SCC +S9 highest conc. <50% cytotox. over control: 1000 µM
HepG2 cells, 48 h, selected cell count per valid field, without metabolic activation (−S9)
  SCC −S9 highest conc. <50% cytotox. over control: 1000 µM

## CCCC(O)C(CC)CO (stereo not shown) [2-Ethyl-1,3-hexanediol]
human, 48 h
  CMFDA +S9 highest conc. <50% cytotox. over control: 1000 µM
  CMFDA −S9 highest conc. <50% cytotox. over control: 1000 µM
  SCC +S9 highest conc. <50% cytotox. over control: 1000 µM
  SCC −S9 highest conc. <50% cytotox. over control: 1000 µM

## Cc1c2ccccc2c(C)c2c1ccc1ccccc12 [7,12-Dimethylbenz[a]anthracene]
human
  CMFDA +S9 highest conc. <50% cytotox. over control: 1000 µM
  CMFDA −S9 highest conc. <50% cytotox. over control: 250 µM
  SCC +S9 highest conc. <50% cytotox. over control: 500 µM
  SCC −S9 highest conc. <50% cytotox. over control: 125 µM

## C[N+](C)(C)CCCl.[Cl-] [(2-chloroethyl)trimethyl-ammonium chloride]
human
  CMFDA +S9 highest conc. <50% cytotox. over control: 1000 µM
  CMFDA −S9 highest conc. <50% cytotox. over control: 1000 µM
  SCC +S9 highest conc. <50% cytotox. over control: 1000 µM
  SCC −S9 highest conc. <50% cytotox. over control: 1000 µM

## Nc1nc[nH]n1 [Amitrole]
human, 48 h
  CMFDA +S9 highest conc. <50% cytotox. over control: 1000 µM
  CMFDA −S9 highest conc. <50% cytotox. over control: 1000 µM
  SCC +S9 highest conc. <50% cytotox. over control: 1000 µM
  SCC −S9 highest conc. <50% cytotox. over control: 1000 µM

## CC1(C)S[C@@H]2[C@H](NC(=O)[C@H](N)c3ccccc3)C(=O)N2[C@H]1C(=O)O [Ampicillin trihydrate]
human, 48 h
  CMFDA +S9 highest conc. <50% cytotox. over control: 1000 µM
  CMFDA −S9 highest conc. <50% cytotox. over control: 1000 µM
  SCC +S9 highest conc. <50% cytotox. over control: 1000 µM
  SCC −S9 highest conc. <50% cytotox. over control: 1000 µM

## c1ccc2c(c1)cc1ccc3cccc4ccc2c1c34 [Benzo[a]pyrene]
human
  CMFDA +S9 highest conc. <50% cytotox. over control: 125 µM
  CMFDA −S9 highest conc. <50% cytotox. over control: 125 µM
  SCC +S9 highest conc. <50% cytotox. over control: 125 µM
  SCC −S9 highest conc. <50% cytotox. over control: 3.91 µM

## OCc1ccccc1 [Benzyl alcohol]
human, 48 h
  CMFDA +S9 highest conc. <50% cytotox. over control: 1000 µM
  CMFDA −S9 highest conc. <50% cytotox. over control: 1000 µM
  SCC +S9 highest conc. <50% cytotox. over control: 1000 µM
  SCC −S9 highest conc. <50% cytotox. over control: 1000 µM

## O=C(N[C@H](CO)[C@H](O)c1ccc([N+](=O)[O-])cc1)C(Cl)Cl [Chloramphenicol]
human, 48 h
  CMFDA +S9 highest conc. <50% cytotox. over control: 1000 µM
  CMFDA −S9 highest conc. <50% cytotox. over control: 1000 µM
  SCC +S9 highest conc. <50% cytotox. over control: 1000 µM
  SCC −S9 highest conc. <50% cytotox. over control: 1000 µM

## COc1cc(/C=C/C(=O)CC(=O)/C=C/c2ccc(O)c(OC)c2)ccc1O [Curcumin]
human, 48 h
  CMFDA +S9 highest conc. <50% cytotox. over control: 125 µM
  CMFDA −S9 highest conc. <50% cytotox. over control: 31.25 µM
  SCC +S9 highest conc. <50% cytotox. over control: 125 µM
  SCC −S9 highest conc. <50% cytotox. over control: 31.25 µM

## O=C1CCCCC1 [Cyclohexanone]
human, 48 h
  CMFDA +S9 highest conc. <50% cytotox. over control: 1000 µM
  CMFDA −S9 highest conc. <50% cytotox. over control: 1000 µM
  SCC +S9 highest conc. <50% cytotox. over control: 1000 µM
  SCC −S9 highest conc. <50% cytotox. over control: 1000 µM

## O=P1(N(CCCl)CCCl)NCCCO1 (stereo not shown) [Cyclophosphamide]
human
  CMFDA +S9 highest conc. <50% cytotox. over control: 62.5 µM
  CMFDA −S9 highest conc. <50% cytotox. over control: 1000 µM
  SCC +S9 highest conc. <50% cytotox. over control: 1000 µM
  SCC −S9 highest conc. <50% cytotox. over control: 1000 µM

## CC(C)[C@@H]1CC[C@@H](C)C[C@H]1O [D,L-menthol]
  CMFDA +S9 highest conc. <50% cytotox. over control: 1000 µM
  CMFDA −S9 highest conc. <50% cytotox. over control: 1000 µM
  SCC +S9 highest conc. <50% cytotox. over control: 1000 µM
  SCC −S9 highest conc. <50% cytotox. over control: 1000 µM

## OC[C@@H](O)[C@@H](O)[C@H](O)[C@H](O)CO [D-mannitol]
human, 48 h
  CMFDA +S9 highest conc. <50% cytotox. over control: 1000 µM
  CMFDA −S9 highest conc. <50% cytotox. over control: 1000 µM
  SCC +S9 highest conc. <50% cytotox. over control: 1000 µM
  SCC −S9 highest conc. <50% cytotox. over control: 1000 µM

## CCCCC(CC)COC(=O)c1ccccc1C(=O)OCC(CC)CCCC (stereo not shown) [Di-(2-ethylhexyl)phthalate]
human
  CMFDA +S9 highest conc. <50% cytotox. over control: 1000 µM
  CMFDA −S9 highest conc. <50% cytotox. over control: 1000 µM
  SCC +S9 highest conc. <50% cytotox. over control: 1000 µM
  SCC −S9 highest conc. <50% cytotox. over control: 1000 µM

## OCCNCCO [Diethanolamine]
human, 48 h
  CMFDA +S9 highest conc. <50% cytotox. over control: 1000 µM
  CMFDA −S9 highest conc. <50% cytotox. over control: 1000 µM
  SCC +S9 highest conc. <50% cytotox. over control: 1000 µM
  SCC −S9 highest conc. <50% cytotox. over control: 1000 µM

## CC[C@H]1OC(=O)[C@H](C)[C@@H](O[C@H]2C[C@@](C)(OC)[C@@H](O)[C@H](C)O2)[C@H](C)[C@@H](O[C@@H]2O[C@H](C)C[C@H](N(C)C)[C@H]2O)[C@](C)(O)C[C@@H](C)C(=O)[C@H](C)[C@@H](O)[C@]1(C)O [Erythromycin stearate]
human, 48 h
  CMFDA −S9 highest conc. <50% cytotox. over control: 62.5 µM
  SCC −S9 highest conc. <50% cytotox. over control: 31.25 µM

## CCc1cc(C(N)=S)ccn1 [Ethionamide]
human, 48 h
  CMFDA +S9 highest conc. <50% cytotox. over control: 1000 µM
  CMFDA −S9 highest conc. <50% cytotox. over control: 1000 µM
  SCC +S9 highest conc. <50% cytotox. over control: 1000 µM
  SCC −S9 highest conc. <50% cytotox. over control: 1000 µM

## C=CC(=O)OCC [Ethyl acrylate]
human
  CMFDA +S9 highest conc. <50% cytotox. over control: 1000 µM
  CMFDA −S9 highest conc. <50% cytotox. over control: 1000 µM
  SCC +S9 highest conc. <50% cytotox. over control: 1000 µM
  SCC −S9 highest conc. <50% cytotox. over control: 1000 µM

## COc1cc([C@@H]2c3cc4c(cc3[C@@H](O[C@@H]3O[C@@H]5CO[C@@H](C)O[C@H]5[C@H](O)[C@H]3O)[C@H]3COC(=O)[C@H]23)OCO4)cc(OC)c1O [Etoposide]
human, 48 h
  CMFDA +S9 highest conc. <50% cytotox. over control: 1000 µM
  CMFDA −S9 highest conc. <50% cytotox. over control: 1000 µM
  SCC +S9 highest conc. <50% cytotox. over control: 1000 µM

## CN(C)C(=O)Nc1cccc(C(F)(F)F)c1 [Fluometron]
human, 48 h
  CMFDA +S9 highest conc. <50% cytotox. over control: 1000 µM
  CMFDA −S9 highest conc. <50% cytotox. over control: 1000 µM
  SCC +S9 highest conc. <50% cytotox. over control: 1000 µM
  SCC −S9 highest conc. <50% cytotox. over control: 500 µM
